In US7629503B2, “Δ-4 desaturases from Euglena gracilis, expressing plants, and oils containing PUFA” (BASF Plant Science GmbH, priority 2003, dated 2009):

Each molecule was assayed on Euglena gracilis Δ4-desaturase (assay: Substrate specificity: feeding fatty acids to yeast expressing the Δ-4-desaturase (pYES-EGD4-2), fatty acid analysis by GC). Conditions: transformed yeast (saccharomyces strain SC334, pYES-EGD4-2), 100 μM fatty acid substrate (67 μM for 16:1 Δ7), 2% galactose induction, 15° C. for 4 days.
Assay type: cell-based
Experimental: Yeasts transformed with the plasmid pYES-EGD4-2 as in Example 4 were analyzed in the following way:
The yeast cells were grown in 1 ml of minimal medium with 0.2% raffinose for two days and then transferred into 5 ml of the same medium. This culture was grown at 30° C. for 6 h until the OD600 was 0.05. Then 100 μM of the fatty acid substrates (67 μM for 16:1 Δ7) were added, and the expression of the Δ-4-desaturase was induced by adding 2% galactose. The cells were then incubated at 15° C. for 4 days, harvested, washed with 100 mM NaHCO3 and employed for the fatty acid analysis by GC.
The substrate specificities were found by feeding the transformed yeast strains with different fatty acids (Tab. 1). Conversion of the fed fatty acids to their Δ4-desaturated products was then determined.

SMILES	Conversion (in %) of the fed fatty acid to its Δ4-desaturated product
CCCCCCCCCCCCCCCC(=O)O [16:0]	Not detectable
CCCCCCCCC=CCCCCCC(=O)O [16:1 Δ7]	7.4 (±0.8) %
CCCCCC/C=C\CCCCCCCC(=O)O [16:1 Δ9]	Not detectable
CC/C=C\C/C=C\C/C=C\CCCCCC(=O)O [16:3 Δ7, 10, 13]	21.4 (±3.3) %
CCCCCCCCCCCCCCCCCC(=O)O [18:0]	Not detectable
CCCCCCCC/C=C\CCCCCCCC(=O)O [18:1 Δ9]	Not detectable
CCCCC/C=C\C/C=C\CCCCCCCC(=O)O [18:2 Δ9, 12]	Not detectable
CCCCC/C=C\C/C=C\C/C=C\CCCCC(=O)O [18:3 Δ6, 9, 12]	Not detectable
CCCCC/C=C\C/C=C\C/C=C\CCCCCCC(=O)O [20:3 Δ8, 11, 14]	Not detectable
CCCCC/C=C\C/C=C\C/C=C\C/C=C\CCCCCC(=O)O [22:4 Δ7, 10, 13, 16]	28.7 (±2.5) %
CC/C=C\C/C=C\C/C=C\C/C=C\C/C=C\CCCCCC(=O)O [22:5 Δ7, 10, 13, 16, 19, docosapentaenoic acid]	29.7 (±2.8) %
